Activity calls are given as the source filed them.
Experiments:
[1] = biological target: Protein-tyrosine kinase 2-beta (Homo sapiens, UniProt Q14289);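 further: potency of inhibitors of PYK2 kinase phosphorylation of poly-GT substrate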
Cytochrome P450 2C19 = Cytochrome P450 2C19 (Homo sapiens, UniProt P33261); experiment: Cytochrome panel assay with activity outcomes. Panel member name: p450-cyp2c19 Compounds with AC50 equal or less than 10 uM are considered active; assay type: functional; conditions: read-out: AC50
Cytochrome P450 2C9 = Cytochrome P450 2C9 (Homo sapiens, UniProt P11712)
BJ [2] = experiment: BJ-TERT fibroblast viability loss – cell-based, RAS-independent, luminescence, dose response (AID 1933); assay type: functional, Homo sapiens
BJ [3] = experiment: cells; assay type: functional, cell-based, Homo sapiens
BJ [4] = experiment: BJ-TERT-LT-ST fibroblast viability loss – cell-based, RAS-independent, luminescence, dose response (AID 1935); assay type: functional, Homo sapiens;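 further: BJ fibroblasts immortalized with TERT plus LT and ST oncogenes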
X-box-binding protein 1 = X-box-binding protein 1 (Homo sapiens, UniProt P17861); assay type: functional, Cricetulus griseus;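 further: confirmatory dose-response counter-screen serving a CHOP assay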
[5] = biological target: Luciferin 4-monooxygenase (Photinus pyralis, UniProt P08659); experiment: Counter Screen for Luciferase-based Assay Positives. [Related pubchem assays: 620, 618, 411 ]
HT-1080 = experiment: HT1080 cell viability loss – fluorescence readout (AID 620); assay type: functional, cell-based; conditions: Homo sapiens
[6] = DRD fibroblast viability loss – cell-based, non-viral oncogenic, luminescence, dose response (AID 1934); assay type: functional; conditions: Homo sapiens
[7] = HEK-293T viability loss after treatment – luminescence, T-cell screen hits, cytotoxicity control for TCR NF-kB inhibitor project, dose response (AID 489026); assay type: functional, cell-based;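 further: cells exposed to compound about 14 hours before the viability readout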
[8] = biological target: Photoreceptor-specific nuclear receptor (Homo sapiens, UniProt Q9Y5X4); assay type: functional;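 further: potency for compounds that break the NR2E3 corepressor complex and count as activators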
[9] = biological target: Peroxisome proliferator-activated receptor gamma/Nuclear receptor coactivator 1 (Homo sapiens, UniProt P37231); experiment: (§1) TR-FRET dose response biochemical High Throughput Screening assay for agonists of the steroid receptor coactivator 1 (SRC-1) recruitment by the peroxisome proliferator-activated receptor gamma (PPAR gamma): non-selective agonists. [Related pubchem assays (depositor defined):AID1300, AID1808, AID504735, AID631]; assay type: protein assay
[10] = biological target: Peroxisome proliferator-activated receptor gamma/Nuclear receptor coactivator 3 (Homo sapiens, UniProt P37231); experiment: as §1, with “3 (SRC-3)” for “1 (SRC-1)”, “assays: 1301 (Confirmation screen.), 1048 (Primary screen.)]” for “assays (depositor defined):AID1300, AID1808, AID504735, AID631]”; assay type: functional
[11] = biological target: Peroxisome proliferator-activated receptor gamma/Nuclear receptor coactivator 2 (Homo sapiens, UniProt P37231); experiment: TR-FRET dose response biochemical High Throughput Screening assay for agonists of the steroid receptor coactivator 2 (SRC-2) recruitment by the peroxisome proliferator-activated receptor gamma (PPAR gamma): non-selective agonists. [Related pubchem assays: 1297, 1032 ]; assay type: functional
[12] = biological target: Peroxisome proliferator-activated receptor gamma/Nuclear receptor corepressor 2 (Homo sapiens, UniProt P37231+Q9Y618); assay type: functional
Protein Tat = Protein Tat (Human immunodeficiency virus type 1 group M subtype B (isolate HXB2)(HIV-1), UniProt P04608); assay type: functional;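 further: tat binding to TAR RNA read out by fluorescence polarization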
HEK293 = experiment: Fluorescence-based counterscreen for potentiators or agonists of NPY-Y2: cell-based high-throughput dose response assay to identify inhibitors of cyclic nucleotide gated ion channel (CNGC) activity. In this assay, the parental HEK293 cell line transfected with a cyclic-nucleotide gated ion channel (CNGC)-based cAMP sensor is used to measure inhibition of isoproterenol-induced CNGC activity by test compound.; assay type: functional; conditions: Homo sapiens;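 further: stimulus is 1 µM isoproterenol at EC100 plus PDE inhibitor Ro 20-1724 at 25 µM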
[13] = system: Streptococcus sp. 'group A'; experiment: Streptococcus pyogenes SK(-)GAS viability under kanamycin – luminescence, BacTiterGlo, confirmation, counter-screen for streptokinase expression inhibitor project, dose response (AID 1900); assay type: functional, organism-based
[14] = biological target: T1, Neuropeptide Y receptor type 2 (Homo sapiens, UniProt P49146); experiment: Fluorescence-based cell-based high-throughput dose response assay for agonists of NPY-Y2. [Related pubchem assays: 1703 (Screening assay (CNGC inhibitors).), 1359 (Screening assay (NPY-Y2 potentiators or agonists).), 1304 (Screening assay (NPY-Y1 potentiators or agonists).), 1710 (Screening assay (NPY-Y2 agonists).), 1791 (Summary AID.)]; assay type: functional
T1 sequence (P49146 whole entry): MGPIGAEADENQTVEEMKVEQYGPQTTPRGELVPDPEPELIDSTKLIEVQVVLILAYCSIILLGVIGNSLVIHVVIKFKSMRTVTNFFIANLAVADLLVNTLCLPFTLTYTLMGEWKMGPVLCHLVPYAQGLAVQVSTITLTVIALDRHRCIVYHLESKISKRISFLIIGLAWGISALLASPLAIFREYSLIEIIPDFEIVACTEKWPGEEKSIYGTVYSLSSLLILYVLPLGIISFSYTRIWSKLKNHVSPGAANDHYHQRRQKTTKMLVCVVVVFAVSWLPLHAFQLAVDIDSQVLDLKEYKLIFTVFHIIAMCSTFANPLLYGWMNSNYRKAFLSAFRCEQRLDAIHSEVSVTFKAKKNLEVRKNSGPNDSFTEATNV

Streptokinase A = biological target: T2, Streptokinase A (Streptococcus pyogenes serotype M1, UniProt P10520); experiment: viability-normalized secreted streptokinase activity reduction – plasminogen activation absorbance, OD405, dose response (AID 1914); assay type: functional, Streptococcus pyogenes M1 GAS;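 further: secreted streptokinase activity via plasminogen activation per viability signal from cell pellet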
T2 sequence (P10520 whole entry): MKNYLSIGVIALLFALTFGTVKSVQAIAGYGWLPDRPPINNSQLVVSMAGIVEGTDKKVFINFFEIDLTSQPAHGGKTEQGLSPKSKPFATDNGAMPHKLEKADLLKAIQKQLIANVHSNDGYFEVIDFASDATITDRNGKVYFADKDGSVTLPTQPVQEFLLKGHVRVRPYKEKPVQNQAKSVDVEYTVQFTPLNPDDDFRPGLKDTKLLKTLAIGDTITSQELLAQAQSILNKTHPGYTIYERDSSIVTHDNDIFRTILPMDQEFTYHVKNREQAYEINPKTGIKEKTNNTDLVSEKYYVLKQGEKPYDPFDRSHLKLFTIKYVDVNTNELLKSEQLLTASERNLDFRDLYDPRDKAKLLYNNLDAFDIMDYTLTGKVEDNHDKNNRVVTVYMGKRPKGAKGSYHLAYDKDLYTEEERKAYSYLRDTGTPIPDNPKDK

[15] = biological target: T3, Neuropeptide Y receptor type 1 (Homo sapiens, UniProt P25929); experiment: Fluorescence-based counterscreen for agonists of NPY-Y2: cell-based high-throughput dose response assay for agonists of NPY-Y1.; assay type: functional
T3 sequence (P25929 whole entry): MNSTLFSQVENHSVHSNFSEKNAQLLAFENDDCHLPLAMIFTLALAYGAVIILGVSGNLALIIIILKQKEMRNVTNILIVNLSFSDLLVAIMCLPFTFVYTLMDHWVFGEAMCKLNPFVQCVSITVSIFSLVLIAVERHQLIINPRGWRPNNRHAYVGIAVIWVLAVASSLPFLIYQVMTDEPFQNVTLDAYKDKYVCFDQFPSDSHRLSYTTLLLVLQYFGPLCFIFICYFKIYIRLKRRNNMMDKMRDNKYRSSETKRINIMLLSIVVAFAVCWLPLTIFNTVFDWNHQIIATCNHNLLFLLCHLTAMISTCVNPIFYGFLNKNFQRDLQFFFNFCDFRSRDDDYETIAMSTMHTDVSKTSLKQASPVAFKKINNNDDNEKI

Streptococcus = experiment: GAS UMAA2166 growth inhibition – luminescence, BacTiterGlo, counter-screen for streptokinase expression inhibitor project, dose response (AID 1915); assay type: functional, organism-based;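 further: potency for reduction of bacterial viability or growth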
INS1 = experiment: INS-1E survival protection against cytokine death – cell-based, luminescence, retest, dose response (AID 449756); assay type: functional; conditions: Rattus norvegicus;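 further: cell death triggered by IL-1 beta plus TNF-alpha plus IFN-gamma mixture; protective hits raise ATP signal compared with cytokine alone wells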
[16] = Luminescence Cell-Based Dose Confirmation HTS to Identify Activators of 5'UTR Stem-Loop Driven Alpha-Synuclein mRNA Translation in H4 Neuroglioblastoma Cells. [Related pubchem assays: 1829 (Project Summary), 1814 (Primary HTS)]; assay type: functional
[17] = Luminescence Cell-Based Dose Response HTS to Identify Activators of Luciferase Translation or Activity in H4 […] Cells. [Related pubchem assays: 1829 (Project Summary), 1814 (Primary HTS)]; assay type: functional
H4 = experiment: Luminescence Cell-Based Dose Response HTS to Identify Activators of 5'UTR Stem-Loop Driven Prion Protein mRNA Translation in H4 Neuroglioblastoma Cells. [Related pubchem assays: 1829 (Project Summary), 1814 (Primary HTS)]; assay type: functional; conditions: Homo sapiens
[18] = HPDE-C7 pancreatic duct cell viability loss – fluorescence, HTS (AID 430); assay type: functional, cell-based; conditions: Homo sapiens
[19] = Trypanosoma cruzi growth suppression in host cells – NIH3T3 host cells, beta-gal luminescence, confirmation (AID 2044); assay type: functional, cell-based;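 further: intracellular parasites grown in NIH/3T3 mouse fibroblasts as host cells; luminescent beta-galactosidase reporter signal from transgenic T. cruzi replicating inside host cells; inhibitors lower the luminescence signal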
[20] = viability loss of HPDE-C7K cells – cell-based, fluorescence, HTS, primary screen (AID 431); assay type: functional; conditions: Homo sapiens
[21] = NIH3T3 cell viability loss – ATP luminescence, mouse fibroblasts, counter-screen, dose response (AID 2010); assay type: functional, cell-based;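 further: cells exposed to compound for about 90 hours before reading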
[22] = biological target: Fructose-bisphosphate aldolase (Mycobacterium tuberculosis, UniProt P9WQA3); experiment: Fluorescence-based biochemical high throughput dose response assay for inhibitors of the fructose-bisphosphate aldolase (FBA) of M. tuberculosis.; assay type: functional
Fructose-bisphosphate aldolase, sequence (P9WQA3 whole entry): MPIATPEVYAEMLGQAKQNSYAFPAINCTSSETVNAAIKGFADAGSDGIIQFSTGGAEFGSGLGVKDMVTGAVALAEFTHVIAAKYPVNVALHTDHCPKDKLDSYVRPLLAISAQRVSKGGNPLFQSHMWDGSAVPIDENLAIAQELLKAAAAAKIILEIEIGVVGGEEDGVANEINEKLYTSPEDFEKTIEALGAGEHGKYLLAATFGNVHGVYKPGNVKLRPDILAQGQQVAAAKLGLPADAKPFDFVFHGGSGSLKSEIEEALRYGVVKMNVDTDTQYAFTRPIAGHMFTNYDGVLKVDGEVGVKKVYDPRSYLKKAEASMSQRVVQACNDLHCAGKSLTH

X-box-binding protein 1, sequence (P17861 whole entry): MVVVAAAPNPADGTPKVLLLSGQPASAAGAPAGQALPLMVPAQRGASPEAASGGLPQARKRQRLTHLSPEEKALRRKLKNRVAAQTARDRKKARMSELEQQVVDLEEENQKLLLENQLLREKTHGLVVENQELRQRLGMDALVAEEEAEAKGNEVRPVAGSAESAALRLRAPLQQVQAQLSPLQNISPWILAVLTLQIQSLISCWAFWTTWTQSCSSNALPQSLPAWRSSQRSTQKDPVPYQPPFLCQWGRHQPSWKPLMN
Protein-tyrosine kinase 2-beta, sequence (Q14289 whole entry): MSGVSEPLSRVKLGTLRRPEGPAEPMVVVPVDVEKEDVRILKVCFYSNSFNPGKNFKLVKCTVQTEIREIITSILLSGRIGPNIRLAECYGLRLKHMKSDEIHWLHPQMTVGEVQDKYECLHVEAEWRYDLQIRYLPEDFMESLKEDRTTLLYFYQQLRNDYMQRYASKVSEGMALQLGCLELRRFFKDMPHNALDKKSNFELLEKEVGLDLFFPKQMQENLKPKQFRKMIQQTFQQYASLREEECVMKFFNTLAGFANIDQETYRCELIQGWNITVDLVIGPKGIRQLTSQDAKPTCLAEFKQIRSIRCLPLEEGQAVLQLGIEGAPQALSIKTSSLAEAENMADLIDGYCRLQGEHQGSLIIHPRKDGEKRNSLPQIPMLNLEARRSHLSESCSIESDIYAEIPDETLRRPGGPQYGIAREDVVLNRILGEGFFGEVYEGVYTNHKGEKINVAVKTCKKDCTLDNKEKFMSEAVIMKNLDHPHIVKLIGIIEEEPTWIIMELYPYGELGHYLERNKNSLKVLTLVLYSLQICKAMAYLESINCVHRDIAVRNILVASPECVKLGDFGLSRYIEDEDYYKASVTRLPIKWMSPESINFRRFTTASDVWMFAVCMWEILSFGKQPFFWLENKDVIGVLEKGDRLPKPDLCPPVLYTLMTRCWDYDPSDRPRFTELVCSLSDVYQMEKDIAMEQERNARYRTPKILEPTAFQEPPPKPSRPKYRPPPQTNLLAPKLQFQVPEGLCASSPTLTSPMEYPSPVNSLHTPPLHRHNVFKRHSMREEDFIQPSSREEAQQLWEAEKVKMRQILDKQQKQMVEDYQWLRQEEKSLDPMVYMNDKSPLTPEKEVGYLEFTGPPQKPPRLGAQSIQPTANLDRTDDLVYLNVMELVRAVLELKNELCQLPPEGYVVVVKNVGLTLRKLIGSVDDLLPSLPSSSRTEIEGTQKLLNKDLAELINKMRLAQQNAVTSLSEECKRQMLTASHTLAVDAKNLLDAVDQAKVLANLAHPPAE
Protein Tat, sequence (P04608 whole entry): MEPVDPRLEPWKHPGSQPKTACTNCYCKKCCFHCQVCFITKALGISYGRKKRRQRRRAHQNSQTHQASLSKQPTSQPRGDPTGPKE
Peroxisome proliferator-activated receptor gamma/Nuclear receptor coactivator 2, sequence (P37231 whole entry): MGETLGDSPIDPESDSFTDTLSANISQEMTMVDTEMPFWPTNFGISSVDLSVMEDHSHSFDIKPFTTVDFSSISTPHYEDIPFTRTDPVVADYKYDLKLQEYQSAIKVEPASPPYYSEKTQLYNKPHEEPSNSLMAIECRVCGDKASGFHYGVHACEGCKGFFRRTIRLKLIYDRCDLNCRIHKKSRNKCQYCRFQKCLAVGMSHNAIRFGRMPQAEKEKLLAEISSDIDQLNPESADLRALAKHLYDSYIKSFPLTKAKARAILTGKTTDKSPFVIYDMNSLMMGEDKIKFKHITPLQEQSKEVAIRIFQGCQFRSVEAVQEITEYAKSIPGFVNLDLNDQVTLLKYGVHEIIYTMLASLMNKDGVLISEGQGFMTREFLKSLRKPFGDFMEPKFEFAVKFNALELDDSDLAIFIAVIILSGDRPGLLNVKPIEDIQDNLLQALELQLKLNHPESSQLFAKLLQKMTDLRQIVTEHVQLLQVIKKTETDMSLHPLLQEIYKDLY
Peroxisome proliferator-activated receptor gamma/Nuclear receptor coactivator 2, sequence (Q15596 whole entry, further chain): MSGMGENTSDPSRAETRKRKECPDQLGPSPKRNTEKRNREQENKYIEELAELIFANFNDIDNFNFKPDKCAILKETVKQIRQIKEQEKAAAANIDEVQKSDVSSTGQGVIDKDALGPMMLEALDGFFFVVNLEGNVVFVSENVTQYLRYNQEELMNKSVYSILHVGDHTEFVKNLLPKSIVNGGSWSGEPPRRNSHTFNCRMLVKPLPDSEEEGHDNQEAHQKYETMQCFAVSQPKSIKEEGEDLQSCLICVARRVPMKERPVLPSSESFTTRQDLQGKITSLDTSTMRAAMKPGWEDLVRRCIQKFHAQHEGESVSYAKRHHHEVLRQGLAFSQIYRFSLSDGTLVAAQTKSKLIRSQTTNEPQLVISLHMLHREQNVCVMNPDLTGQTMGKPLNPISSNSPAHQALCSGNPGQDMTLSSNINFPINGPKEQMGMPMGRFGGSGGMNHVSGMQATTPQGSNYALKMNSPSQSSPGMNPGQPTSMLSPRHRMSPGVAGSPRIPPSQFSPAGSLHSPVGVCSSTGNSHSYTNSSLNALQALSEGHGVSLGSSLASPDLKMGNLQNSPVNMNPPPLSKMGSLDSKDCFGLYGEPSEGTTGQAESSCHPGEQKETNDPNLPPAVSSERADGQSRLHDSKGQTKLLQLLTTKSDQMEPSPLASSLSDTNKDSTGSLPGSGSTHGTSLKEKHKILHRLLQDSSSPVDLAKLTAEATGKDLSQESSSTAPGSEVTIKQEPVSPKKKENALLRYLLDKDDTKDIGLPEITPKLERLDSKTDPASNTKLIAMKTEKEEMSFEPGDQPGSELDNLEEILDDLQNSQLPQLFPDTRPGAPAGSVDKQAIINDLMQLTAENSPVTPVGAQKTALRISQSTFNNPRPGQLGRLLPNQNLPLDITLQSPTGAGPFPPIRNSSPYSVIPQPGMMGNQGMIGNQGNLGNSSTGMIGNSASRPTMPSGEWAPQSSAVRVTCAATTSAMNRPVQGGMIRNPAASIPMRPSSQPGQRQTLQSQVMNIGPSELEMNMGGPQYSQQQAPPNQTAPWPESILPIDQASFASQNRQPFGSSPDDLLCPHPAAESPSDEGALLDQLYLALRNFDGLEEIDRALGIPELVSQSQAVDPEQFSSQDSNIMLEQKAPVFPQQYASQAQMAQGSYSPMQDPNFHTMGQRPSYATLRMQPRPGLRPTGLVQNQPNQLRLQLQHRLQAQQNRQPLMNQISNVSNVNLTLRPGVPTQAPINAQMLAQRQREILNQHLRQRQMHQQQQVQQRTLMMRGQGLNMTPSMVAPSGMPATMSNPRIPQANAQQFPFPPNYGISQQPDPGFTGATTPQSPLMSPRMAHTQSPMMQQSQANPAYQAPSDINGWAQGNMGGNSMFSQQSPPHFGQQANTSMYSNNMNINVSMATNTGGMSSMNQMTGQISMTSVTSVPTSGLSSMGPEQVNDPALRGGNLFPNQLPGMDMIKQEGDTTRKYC
Luciferin 4-monooxygenase, sequence (P08659 whole entry): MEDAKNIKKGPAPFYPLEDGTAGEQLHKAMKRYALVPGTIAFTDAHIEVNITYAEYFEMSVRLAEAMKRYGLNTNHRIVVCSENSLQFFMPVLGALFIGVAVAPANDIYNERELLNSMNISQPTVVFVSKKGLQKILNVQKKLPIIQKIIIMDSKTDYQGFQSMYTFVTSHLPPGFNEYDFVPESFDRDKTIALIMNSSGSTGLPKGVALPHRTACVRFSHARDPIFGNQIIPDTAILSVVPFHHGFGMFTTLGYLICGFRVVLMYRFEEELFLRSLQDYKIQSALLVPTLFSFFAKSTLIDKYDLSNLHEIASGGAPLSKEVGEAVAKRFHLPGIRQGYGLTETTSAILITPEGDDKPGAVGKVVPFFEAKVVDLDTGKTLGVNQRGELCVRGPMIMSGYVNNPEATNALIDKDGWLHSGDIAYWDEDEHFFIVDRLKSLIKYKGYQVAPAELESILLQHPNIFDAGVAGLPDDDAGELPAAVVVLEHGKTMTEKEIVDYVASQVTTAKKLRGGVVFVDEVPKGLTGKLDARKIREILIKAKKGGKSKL
Cytochrome P450 2C9, sequence (P11712 whole entry): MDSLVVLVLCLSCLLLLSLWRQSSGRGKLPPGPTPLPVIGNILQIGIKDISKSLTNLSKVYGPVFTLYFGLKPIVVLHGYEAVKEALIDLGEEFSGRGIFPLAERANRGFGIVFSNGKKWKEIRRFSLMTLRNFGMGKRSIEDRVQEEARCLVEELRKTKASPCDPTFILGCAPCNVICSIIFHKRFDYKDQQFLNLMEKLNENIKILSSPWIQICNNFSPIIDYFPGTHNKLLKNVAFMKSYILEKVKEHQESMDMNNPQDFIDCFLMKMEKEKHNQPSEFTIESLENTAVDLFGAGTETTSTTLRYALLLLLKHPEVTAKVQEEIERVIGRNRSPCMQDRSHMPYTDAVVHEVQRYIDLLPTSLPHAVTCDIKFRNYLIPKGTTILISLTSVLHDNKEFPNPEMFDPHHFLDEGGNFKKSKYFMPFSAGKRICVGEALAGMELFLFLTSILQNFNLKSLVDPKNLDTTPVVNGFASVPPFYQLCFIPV

**Q.** With `Cc1ccc(C(=O)COC(=O)c2ccc3c(c2)C(=O)N(c2cccc4ncccc24)C3=O)cc1C` as the compound, how does the IC50 [1] read?
**A.** Its IC50 is 7.66 µM (active).

**Q.** What about the AC50 (Cytochrome P450 2C19) of the same compound?
**A.** Its AC50 is 15.8 µM (inconclusive).

**Q.** What about the AC50 (Cytochrome P450 2C9) of the same compound?
**A.** Its AC50 is 0.708 µM (inconclusive).

**Q.** For `C=C(C=O)CC1CC(O)[C@]2(C)OC3CC4OC5C[C@]6(C)O[C@]7(C)CCC8OC9C[C@]%10(C)OC%11C(C)=CC(=O)OC%11CC%10OC9C[C@@H](C)C8OC7CC6O[C@]5(C)CC5OC5C4OC3CC2O1` (stereo partly specified), which EC50 (BJ [2]; bj) is on record?
**A.** Its EC50 is 1.17 µM (inconclusive).

**Q.** And the EC50 (BJ [3]; bj)?
**A.** Its EC50 is 2.93 µM (inconclusive).

**Q.** And the EC50 (BJ [4]; bj)?
**A.** The EC50 was 0.735 µM (inconclusive).

**Q.** And the “Absolute IC50 (XBP1)” value (X-box-binding protein 1)?
**A.** Its value is 4.71 µM.

**Q.** For `CCCC(=O)C1=C(Nc2ccc(OC)cc2OC)CC(C)(C)CC1=O`, which EC50 (BJ [2]; Homo sapiens, BJ) is on record?
**A.** The EC50 was 13.1 µM (active).

**Q.** And the EC50 [5]?
**A.** Its EC50 is 0.55 µM (active).

**Q.** What about the EC50 (BJ [3]; Homo sapiens, BJ) of the same compound?
**A.** The EC50 was 29.9 µM (active).

**Q.** And the EC50 (HT-1080)?
**A.** The EC50 was 17.3 µM (active).

**Q.** What about the EC50 (BJ [4]; Homo sapiens, BJ) of the same compound?
**A.** Its EC50 is 4.43 µM (active).

**Q.** What about the EC50 [6] of the same compound?
**A.** The EC50 was 4.69 µM (active).

**Q.** And the IC50 [7]?
**A.** The IC50 was > 80 µM (inactive).

**Q.** With `CCOC(=O)c1c(NC(=O)Cc2cccs2)sc(C(=O)NC2CCCCC2)c1C` as the compound, how does the “Absolute IC50 (XBP1)” value (X-box-binding protein 1) read?
**A.** Its value is 10 µM.

**Q.** For `O=C(O)CCc1ccc(-c2ccc(Br)cc2)o1`, which IC50 [8] is on record?
**A.** Its IC50 is > 39.8 µM (not active).

**Q.** What about the EC50 [9] of the same compound?
**A.** Its EC50 is > 79.4 µM (inactive).

**Q.** And the EC50 [10]?
**A.** The EC50 was > 79.4 µM (not active).

**Q.** What about the EC50 [11] of the same compound?
**A.** Its EC50 is 65.4 µM (not active).

**Q.** What about the IC50 [12] of the same compound?
**A.** The IC50 was 4.4 µM (active).

**Q.** What about the IC50 (Protein Tat) of the same compound?
**A.** Its IC50 is > 100 µM (active).

**Q.** Which EC50 (HEK293) does the source give for `O=C(/C(=N/Nc1cccc([N+](=O)[O-])c1)C(=O)C(F)(F)F)c1ccc(Br)cc1` here?
**A.** The EC50 was 12.2 µM (not active).

**Q.** What about the EC50 [13] of the same compound?
**A.** Its EC50 is 7.63 µM (active).

**Q.** And the EC50 [14]?
**A.** Its EC50 is 12.1 µM (not active).

**Q.** What about the EC50 (Streptokinase A) of the same compound?
**A.** The EC50 was 6.23 µM (active).

**Q.** And the EC50 [15]?
**A.** Its EC50 is 10.6 µM (not active).

**Q.** What about the EC50 (Streptococcus) of the same compound?
**A.** The EC50 was 5.97 µM (active).

**Q.** What about the AC50 (INS1) of the same compound?
**A.** The AC50 was 6.21 µM (active).

**Q.** With `Nc1c(C(=O)NCc2ccco2)c2nc3ccccc3nc2n1CCN1CCCCC1` as the compound, how does the EC50 [16] read?
**A.** Its EC50 is > 120 µM (not active).

**Q.** What about the EC50 [17] of the same compound?
**A.** The EC50 was 26.9 µM (active).

**Q.** What about the EC50 (H4) of the same compound?
**A.** Its EC50 is > 120 µM (not active).

**Q.** What about the EC50 [18] of the same compound?
**A.** The EC50 was 12.6 µM (active).

**Q.** What about the EC50 [19] of the same compound?
**A.** The EC50 was 2.43 µM (active).

**Q.** What about the EC50 [20] of the same compound?
**A.** The EC50 was 14.4 µM (active).

**Q.** And the EC50 [21]?
**A.** Its EC50 is 9.81 µM (active).

**Q.** What about the IC50 [22] of the same compound?
**A.** The IC50 was 0.776 µM (active).

Source: ChEMBL document CHEMBL1201862, “PubChem BioAssay data set” (2004)
